Test results taken from patent US20220089575A1, “FARNESOID X RECEPTOR AGONISTS AND USES THEREOF” (Metacrine, Inc., priority 2017, published 2022).

target: T1, hFXR (Homo sapiens, UniProt Q96RI1); assay: In Vitro FXR Assay (TK): TK-ECRE-luc reporter in transfected CV-1 cells; type: cell-based; conditions: 18 hrs, luminescence, maximum efficacy of <25% of the Fexarmine control classified as '+'
T1 construct: expressed in transfected cells; host or cells: CV-1 cells
T1 sequence (Q96RI1 1-486): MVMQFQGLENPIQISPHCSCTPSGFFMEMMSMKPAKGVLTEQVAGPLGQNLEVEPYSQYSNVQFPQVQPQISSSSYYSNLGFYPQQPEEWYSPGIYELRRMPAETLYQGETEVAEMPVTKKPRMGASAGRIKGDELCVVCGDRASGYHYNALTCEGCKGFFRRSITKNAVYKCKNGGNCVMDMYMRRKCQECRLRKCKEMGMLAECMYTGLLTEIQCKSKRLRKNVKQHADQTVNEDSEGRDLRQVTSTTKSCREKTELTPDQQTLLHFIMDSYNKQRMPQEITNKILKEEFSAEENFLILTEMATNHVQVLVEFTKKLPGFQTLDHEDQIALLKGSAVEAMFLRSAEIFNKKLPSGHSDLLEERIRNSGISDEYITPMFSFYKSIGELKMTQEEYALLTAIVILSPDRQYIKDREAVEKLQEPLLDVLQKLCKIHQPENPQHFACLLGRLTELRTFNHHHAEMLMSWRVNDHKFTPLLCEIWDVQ
T1 sequence (P19793 1-462 partner): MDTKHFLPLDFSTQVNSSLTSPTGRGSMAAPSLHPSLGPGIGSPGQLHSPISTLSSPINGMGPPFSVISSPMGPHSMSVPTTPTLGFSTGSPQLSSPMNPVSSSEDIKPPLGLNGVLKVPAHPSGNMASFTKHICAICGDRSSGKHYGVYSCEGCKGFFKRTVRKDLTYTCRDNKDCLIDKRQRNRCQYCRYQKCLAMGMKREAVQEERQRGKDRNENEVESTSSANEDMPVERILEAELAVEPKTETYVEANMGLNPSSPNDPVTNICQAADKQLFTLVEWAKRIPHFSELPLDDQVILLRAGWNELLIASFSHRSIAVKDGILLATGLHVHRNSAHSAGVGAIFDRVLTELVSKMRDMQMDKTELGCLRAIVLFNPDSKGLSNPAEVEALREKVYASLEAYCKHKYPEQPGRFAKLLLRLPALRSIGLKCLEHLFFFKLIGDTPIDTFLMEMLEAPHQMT
Outline: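 CV-1, transient co-transfection: hFXR + hRXR + TK-ECRE-luc + pCMX-YFP; charcoal-stripped serum. 18 h post-transfection, DMSO serial dilutions of cpd added; 18 h incubation; lysis, luminescence.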

SMILES | EC50 [nM]
COC(=O)[C@H]1CC[C@H](C(=O)N(C[C@H]2CC[C@H](c3ccc(N(C)C)nc3)CC2)c2cccc(-c3cnn(C4CC4)c3)c2)CC1 [Compound 18.14, trans-Methyl 4-((3-(1-cyclopropyl-1H-pyrazol-4-yl)phenyl)((trans-4-(6-(dimethylamino)pyridin-3-yl)cyclohexyl)methyl)carbamoyl) cyclohexanecarboxylate] | ≤ 250
COc1ccc(C23CCC(CN(c4cccc(-c5cnn(C6CC6)c5)c4)C(=O)[C@H]4CC[C@H](NC(=O)OC(C)(C)C)CC4)(CC2)CC3)cc1C [Compound 18.15, tert-Butyl (4-((3-(1-cyclopropyl-1H-pyrazol-4-yl)phenyl)((4-(4-methoxy-3-methylphenyl)bicyclo[2.2.2]octan-1-yl)methyl)carbamoyl)cyclohexyl) trans-carbamate] | ≤ 250
COc1ccc([C@H]2CC[C@H](CN(c3cccc(-c4cnn(C(C)C)c4)c3)C(=O)[C@H]3CC[C@H](NC(=O)OC(C)(C)C)CC3)CC2)cc1C [Compound 18.16, tert-Butyl (trans-4-((3-(1-isopropyl-1H-pyrazol-4-yl)phenyl)((trans-4-(4-methoxy-3-methylphenyl)cyclohexyl)methyl)carbamoyl)cyclohexyl) carbamate] | ≤ 250
COc1ccc([C@H]2CC[C@H](CN(c3cc(-c4cnn(C5CC5)c4)ccn3)C(=O)[C@H]3CC[C@H](C(=O)OC)CC3)CC2)nc1C [Compound 18.17, trans-Methyl 4-((4-(1-cyclopropyl-1H-pyrazol-4-yl)pyridin-2-yl)((trans-4-(5-methoxy-6-methylpyridin-2-yl)cyclohexyl)methyl)carbamoyl) cyclohexanecarboxylate] | 250 to 1000
CCOC(=O)C[C@H]1CC[C@H](C(=O)N(C[C@H]2CC[C@H](c3ccc(OC)c(C)n3)CC2)c2cc(-c3cnn(C4CC4)c3)ccn2)CC1 [Compound 18.18, Ethyl 2-(trans-4-((4-(1-cyclopropyl-1H-pyrazol-4-yl)pyridin-2-yl)((trans-4-(5-methoxy-6-methylpyridin-2-yl)cyclohexyl)methyl)carbamoyl)cyclohexyl)acetate] | ≤ 250
COc1ccc([C@H]2CC[C@H](CN(c3cccc(-c4cnn(C5CC5)c4)c3)C(=O)[C@H]3CC[C@H](C(=O)OC)CC3)CC2)nc1C [Compound 18.19, trans-Methyl 4-((3-(1-cyclopropyl-1H-pyrazol-4-yl)phenyl)((trans-4-(5-methoxy-6-methylpyridin-2-yl)cyclohexyl)methyl)carbamoyl) cyclohexanecarboxylate] | ≤ 250
CCOC(=O)C[C@H]1CC[C@H](C(=O)N(C[C@H]2CC[C@H](c3ccc(OC)c(C)n3)CC2)c2cc(-c3cnn(C(C)C)c3)ccn2)CC1 [Compound 18.20, Ethyl 2-(trans-4-((4-(1-isopropyl-1H-pyrazol-4-yl)pyridin-2-yl)((trans-4-(5-methoxy-6-methylpyridin-2-yl)cyclohexyl)methyl)carbamoyl)cyclohexyl)acetate] | ≤ 250
CCOC(=O)C[C@H]1CC[C@H](C(=O)N(C[C@H]2CC[C@H](c3ccc(OC)c(C#N)c3)CC2)c2cc(-c3cnn(C(C)C)c3)ccn2)CC1 [Compound 18.21, Ethyl 2-(trans-4-(((trans-4-(3-cyano-4-methoxyphenyl)cyclohexyl)methyl)(4-(1-isopropyl-1H-pyrazol-4-yl)pyridin-2-yl)carbamoyl)cyclohexyl)acetate] | ≤ 250
CCOC(=O)C[C@H]1CC[C@H](C(=O)N(C[C@H]2CC[C@H](c3ccc(OC)c(C#N)n3)CC2)c2cc(-c3cnn(C(C)C)c3)ccn2)CC1 [Compound 18.22, Ethyl 2-(trans-4-(((trans-4-(6-cyano-5-methoxypyridin-2-yl)cyclohexyl)methyl)(4-(1-isopropyl-1H-pyrazol-4-yl)pyridin-2-yl)carbamoyl)cyclohexyl) acetate] | ≤ 250
COc1ccc([C@H]2CC[C@H](CN(c3cc(-c4coc(C5CC5)n4)ccn3)C(=O)[C@H]3CC[C@H](C(=O)OC)CC3)CC2)nc1C [Compound 18.23, trans-Methyl 4-((4-(2-cyclopropyloxazol-4-yl)pyridin-2-yl) ((trans-4-(5-methoxy-6-methylpyridin-2-yl)cyclohexyl)methyl)carbamoyl) cyclohexanecarboxylate] | ≤ 250
COc1ccc([C@H]2CC[C@H](CN(c3cccc(-c4coc(C5CC5)n4)c3)C(=O)[C@H]3CC[C@H](C(=O)OC)CC3)CC2)nc1C#N [Compound 18.24, trans-Methyl 4-(((trans-4-(6-cyano-5-methoxypyridin-2-yl)cyclohexyl)methyl)(3-(2-cyclopropyloxazol-4-yl)phenyl)carbamoyl) cyclohexanecarboxylate] | ≤ 250
COc1ccc([C@H]2CC[C@H](CN(c3cccc(-c4cnc(C5CC5)s4)c3)C(=O)[C@H]3CC[C@H](CC(=O)O)CC3)CC2)cc1C [Compound 19, 2-(trans-4-((3-(2-Cyclopropylthiazol-5-yl)phenyl)((trans-4-(4-methoxy-3-methylphenyl)cyclohexyl)methyl)carbamoyl)cyclohexyl)acetic acid] | ≤ 250
COc1ccc([C@H]2CC[C@H](CN(c3cccc(-c4cnc(C5CC5)s4)c3)C(=O)[C@H]3CC[C@H](CC(=O)O)CC3)CC2)cc1C#N [Compound 20, 2-(trans-4-(((trans-4-(3-Cyano-4-methoxyphenyl)cyclohexyl)methyl)(3-(2-cyclopropylthiazol-5-yl)phenyl)carbamoyl)cyclohexyl)acetic acid] | ≤ 250
COc1ccc([C@H]2CC[C@H](CN(c3cccc(-c4cnc(C5CC5)s4)c3)C(=O)[C@H]3CC[C@H](CC(=O)O)CC3)CC2)nc1C#N [Compound 20.01, 2-(trans-4-(((trans-4-(6-Cyano-5-methoxypyridin-2-yl)cyclohexyl)methyl)(3-(2-cyclopropylthiazol-5-yl)phenyl)carbamoyl)cyclohexyl) acetic acid] | ≤ 250
COc1ccc([C@H]2CC[C@H](CN(c3cc(-c4cnc(C5CC5)s4)ccn3)C(=O)[C@H]3CC[C@H](CC(=O)O)CC3)CC2)cc1C [Compound 20.02, 2-(trans-4-((4-(2-Cyclopropylthiazol-5-yl)pyridin-2-yl)((trans-4-(4-methoxy-3-methylphenyl)cyclohexyl)methyl)carbamoyl)cyclohexyl)acetic acid] | ≤ 250
COc1ccc([C@H]2CC[C@H](CN(c3cccc(-c4cnc(C5CC5)s4)c3)C(=O)[C@H]3CC[C@H](CC(=O)O)CC3)CC2)nc1C [Compound 20.03, 2-(trans-4-((3-(2-Cyclopropylthiazol-5-yl)phenyl)((trans-4-(5-methoxy-6-methylpyridin-2-yl)cyclohexyl)methyl)carbamoyl)cyclohexyl)acetic acid] | ≤ 250
COc1ccc([C@H]2CC[C@H](CN(c3cc(-c4cnc(C5CC5)s4)ccn3)C(=O)[C@H]3CC[C@H](CC(=O)O)CC3)CC2)nc1C [Compound 20.04, 2-(trans-4-((4-(2-Cyclopropylthiazol-5-yl)pyridin-2-yl)((trans-4-(5-methoxy-6-methylpyridin-2-yl)cyclohexyl)methyl)carbamoyl)cyclohexyl)acetic acid] | ≤ 250
COc1ccc([C@H]2CC[C@H](CN(c3cc(-c4cnc(C5CC5)s4)ccn3)C(=O)[C@H]3CC[C@H](CC(=O)O)CC3)CC2)cc1C#N [Compound 20.05, 2-(trans-4-(((trans-4-(3-Cyano-4-methoxyphenyl)cyclohexyl)methyl)(4-(2-cyclopropylthiazol-5-yl)pyridin-2-yl)carbamoyl)cyclohexyl)acetic acid] | ≤ 250
CN(C)c1ccc([C@H]2CC[C@H](CN(c3cccc(-c4cnc(C5CC5)s4)c3)C(=O)[C@H]3CC[C@H](CC(=O)O)CC3)CC2)cn1 [Compound 20.06, 2-(trans-4-((3-(2-Cyclopropylthiazol-5-yl)phenyl)((trans-4-(6-(dimethylamino)pyridin-3-yl)cyclohexyl)methyl)carbamoyl)cyclohexyl)acetic acid] | ≤ 250
COc1ccc([C@H]2CC[C@H](CN(c3cccc(-c4cnc(C(C)C)s4)c3)C(=O)[C@H]3CC[C@H](CC(=O)O)CC3)CC2)nc1C [Compound 20.07, 2-(trans-4-((3-(2-Isopropylthiazol-5-yl)phenyl)((trans-4-(5-methoxy-6-methylpyridin-2-yl)cyclohexyl)methyl)carbamoyl)cyclohexyl) acetic acid] | ≤ 250
COc1ccc(C23CCC(CN(c4cc(-c5cnn(C6CC6)c5)ccn4)C(=O)[C@H]4CC[C@H](CC(=O)O)CC4)(CC2)CC3)cc1C [Compound 20.08, trans-2-(4-((4-(1-Cyclopropyl-1H-pyrazol-4-yl)pyridin-2-yl)((4-(4-methoxy-3-methylphenyl)bicyclo [2.2.2]octan-1-yl)methyl)carbamoyl)cyclohexyl)acetic acid] | ≤ 250
